Experimental data published in publication PMC10337664 (Journal of Chemical Information and Modeling, 2023).

Molecular target: DCAF1 (DDB1-Cul4 associated factor 1), WDR domain (Homo sapiens, UniProt Q9Y4B6)
Assay: […] Å cocrystal structure
Assay type: binding

DCAF1 (DDB1-Cul4 associated factor 1), WDR domain, sequence (Q9Y4B6 1038-1400): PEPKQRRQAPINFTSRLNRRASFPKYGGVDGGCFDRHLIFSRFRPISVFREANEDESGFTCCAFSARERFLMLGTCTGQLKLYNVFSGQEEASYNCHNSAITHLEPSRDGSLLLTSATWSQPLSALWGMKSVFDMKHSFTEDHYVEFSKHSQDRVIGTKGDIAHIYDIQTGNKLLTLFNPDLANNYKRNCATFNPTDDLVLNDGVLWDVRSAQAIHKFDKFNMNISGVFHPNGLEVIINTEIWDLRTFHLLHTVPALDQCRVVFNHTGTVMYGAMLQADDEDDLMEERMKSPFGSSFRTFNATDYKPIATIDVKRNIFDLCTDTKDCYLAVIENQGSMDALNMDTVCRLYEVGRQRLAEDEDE

Fc1cccc(N2CCCC(Nc3cc(N4CCOCC4)ncn3)C2)c1 (stereo not shown) [CYCA-117-70]
Kd: ~70 µM
